“And” between values parts separate entries of the source, which are not always exact repeats. Equal values may be shown once.
Key:
Assay type in all cases: physicochemical
[1] = Loading time by soaking commercial contact lenses in 3 ml contact cases; details: most of buffer system
Method: The loading time for most of buffer system is about 12-24 hours by soaking commercial contact lenses inside the 3 ml contact cases with a certain concentration of domaphen bromide solution.

[2] = Uptake of domaphen bromide by lens in tris(hydroxymethyl)aminomethane buffer system
Method: Three solutions made according to the formulation of Example 1 were made with a 25 ppm (Solution 4), 50 ppm (Solution 5) and 100 ppm (Solution 6) domaphen bromide concentrations, except the borate buffer system was replaced with an equivalent amount of a tris(hydroxymethyl)aminomethane buffer system and the water amount was adjusted accordingly. The term “equivalent amount” means the amount required to adjust the pH to the desired pH as another buffer. Two 3 ml portions of Solutions 4-6 in solution were placed in six separate vials. A total of six Sureview™ lens (Johnson & Johnson, New Brunswick, N.J.) were placed in the vials—one lens per each vial. The vials remained in the lens for a first 24 hour soaking cycle. After 24 hours, the lenses were removed. The amount of domaphen bromide remaining in each of the 3 ml solutions is measured by ultraviolet visible (UV/VIS) spectrometer analytical method. Inhibition % is calculated to reflect the amount of domaphen bromide that remains in the solution expressed as a percentage of the total amount of domaphen bromide. Inhibition % is recorded in Table 3 corresponding to a soaking time of 24 hours. This completed first test cycle. The lenses removed during the first soaking cycle were placed in six fresh vials containing two 3 ml portions of solutions 4-6 to commence the second 24 hour soaking cycle. Care was taken to make sure that the solution the lens is soaked in during the second cycle is identical to the solution in the first cycle. Thus, each pair of lenses is soaked in identical concentrations of Solutions 4-6. After 24 hours, the lenses are removed. The solutions are tested to determine the concentration domaphen bromide in solution. The inhibition % is calculated and recorded in Table 3 corresponding to 48 hour soak time. The lenses were again soaked for a third and fourth soak cycle. The domaphen bromide inhibition % was recorded after the third and fourth soak-cycle and recorded in Table 3 corresponding to the 72 hour and 96 hour soak times, respectively.

[3] = Uptake of domaphen bromide by lens in citrate buffer system
Method: Three solutions made according to the formulation of Example 1 were made with a 25 ppm (Solution 10), 50 ppm (Solution 11) and 100 ppm (Solution 12) domaphen bromide concentrations, except the borate buffer system was replaced with an equivalent amount of a citrate buffer system and the water amount was adjusted accordingly. Two 3 ml portions of Solutions 10-12 in solution were placed in six separate vials. A total of six Sureview™ lens (Johnson & Johnson, New Brunswick, N.J.) were placed in the vials—one lens per each vial. The vials remained in the lens for a first 24 hour soaking cycle. After 24 hours, the lenses were removed. The amount of domaphen bromide remaining in each of the 3 ml solutions is measured by ultraviolet visible (UV/VIS) spectrometer analytical method. Inhibition % is calculated to reflect the amount of domaphen bromide that remains in the solution expressed as a percentage of the total amount of domaphen bromide. Inhibition % is recorded in Table 5 corresponding to a soaking time of 24 hours. This completed the first test cycle. The lenses removed during the first soaking cycle were placed in six fresh vials containing two 3 ml portions of solutions 10-12 to commence the second 24 hour soaking cycle. Care was taken to make sure that the solution the lens is soaked in during the second cycle is identical to the solution in the first cycle. Thus, each pair of lenses is soaked in concentrations of Solutions 10-12 identical to the concentration that the lens was soaked in during the first soak cycle. After 24 hours, the lenses are removed. The solutions are tested to determine the concentration domaphen bromide in solution. The inhibition % is calculated and recorded in Table 5 corresponding to 48 hour soak time. The lenses were again soaked for a third and fourth soak cycle. The domaphen bromide inhibition % was recorded after the third and fourth soak cycle and recorded in Table 5 corresponding to the 72 hour and 96 hour soak times, respectively.

[4] = Uptake of domaphen bromide by lens in phosphate buffer system; details: % remaining in solution; for Inhibition % in 25 ppm Domiphen Bromide: 25 ppm (Solution 7); for Inhibition % in 50 ppm Domiphen Bromide: 50 ppm (Solution 8); for Inhibition % in 100 ppm Domiphen Bromide: 100 ppm (Solution 9)
Method: Three solutions made according to the formulation of Example 1 were made with a 25 ppm (Solution 7), 50 ppm (Solution 8) and 100 ppm (Solution 9) domaphen bromide concentrations, except the borate buffer system was replaced with an equivalent amount of a phosphate buffer system and the amount of water was adjusted accordingly. Two 3 ml portions of Solutions 7-9 in solution were placed in six separate vials. A total of six Sureview™ lens (Johnson & Johnson, New Brunswick, N.J.) were placed in the vials—one lens per each vial. The vials remained in the lens for a first 24 hour soaking cycle. After 24 hours, the lenses were removed. The amount of domaphen bromide remaining in each of the 3 ml solutions is measured by ultraviolet visible (UV/VIS) spectrometer analytical method. Inhibition % is calculated to reflect the amount of domaphen bromide that remains in the solution expressed as a percentage of the total amount of domaphen bromide. Inhibition % is recorded in Table 4 corresponding to a soaking time of 24 hours. This completed the first test cycle. The lenses removed during the first soaking cycle were placed in six fresh vials containing two 3 ml portions of solutions 7-9 to commence the second 24 hour soaking cycle. Care was taken to make sure that the solution the lens is soaked in during the second cycle is identical to the solution in the first cycle. Thus, each pair of lenses is soaked in concentrations of Solutions 7-9 identical to the concentration that the lens was soaked in during the first soak cycle. After 24 hours, the lenses are removed. The solutions are tested to determine the concentration domaphen bromide in solution. The inhibition % is calculated and recorded in Table 4 corresponding to 48 hour soak time. The lenses were again soaked for a third and fourth soak cycle. The domaphen bromide inhibition % was recorded after the third and fourth soak-cycle and recorded in Table 4 corresponding to the 72 hour and 96 hour soak times, respectively.

[5] = Uptake of domaphen bromide by lens in borate buffer system; details: for Inhibition % in 25 ppm Domiphen Bromide / Inhibition % in 50 ppm Domiphen Bromide / Inhibition % in 100 ppm Domiphen Bromide: Borate buffer, % remaining in solution; for Inhibition % in 25 ppm Domiphen Bromide: 25 ppm (Solution 13); for Inhibition % in 50 ppm Domiphen Bromide: 50 ppm (Solution 14); for Inhibition % in 100 ppm Domiphen Bromide: 100 ppm (Solution 15)
Method: Three solutions made according to the formulation of Example 1 were made with a 25 ppm (Solution 13), 50 ppm (Solution 14) and 100 ppm (Solution 15) domaphen bromide concentrations. Two 3 ml portions of Solutions 13-15 in solution were placed in six separate vials. A total of six Sureview™ lens (Johnson & Johnson, New Brunswick, N.J.) were placed in the vials—one lens per each vial. The vials remained in the lens for a first 24 hour soaking cycle. After 24 hours, the lenses were removed. The amount of domaphen bromide remaining in each of the 3 ml solutions is measured by ultraviolet visible (UV/VIS) spectrometer analytical method. Inhibition % is calculated to reflect the amount of domaphen bromide that remains in the solution expressed as a percentage of the total amount of domaphen bromide. Inhibition % is recorded in Table 6 corresponding to a soaking time of 24 hours. This completed the first test cycle. The lenses removed during the first soaking cycle were placed in six fresh vials containing two 3 ml portions of Solutions 13-15 to commence the second 24 hour soaking cycle. Care was taken to make sure that the solution the lens is soaked in during the second cycle is identical to the solution in the first cycle. Thus, each pair of lenses is soaked in concentrations of Solutions 13-15 identical to the concentration that the lens was soaked in during the first soak cycle. After 24 hours, the lenses are removed. The solutions are tested to determine the concentration domaphen bromide in solution. The inhibition % is calculated and recorded in Table 6 corresponding to 48 hour soak time. The lenses were again soaked for a third and fourth soak cycle. The domaphen bromide inhibition % was recorded after the third and fourth soak cycle and recorded in Table 6 corresponding to the 72 hour and 96 hour soak times, respectively.

CCCCCCCCCCCC[N+](C)(C)CCOc1ccccc1 [Domiphen Bromide]
loading time [1]: 12 to 24 h | Domiphen bromide remaining in solution (% of total) ([2]; 25 ppm (Solution 4), soaking time 24 hours): 78.59% and 75.76% | Domiphen bromide remaining in solution (% of total) ([2]; 25 ppm (Solution 4), soaking time 48 hours): 57.91% and 62.72% | Domiphen bromide remaining in solution (% of total) ([2]; 25 ppm (Solution 4), soaking time 72 hours): 59.19% and 53.50% | Domiphen bromide remaining in solution (% of total) ([2]; 25 ppm (Solution 4), soaking time 96 hours): 55.13% and 52.65% | Domiphen bromide remaining in solution (% of total) ([2]; 50 ppm (Solution 5), soaking time 24 hours): 73.59% and 67.65% | Domiphen bromide remaining in solution (% of total) ([2]; 50 ppm (Solution 5), soaking time 48 hours): 68.18% and 66.35% | Domiphen bromide remaining in solution (% of total) ([2]; 50 ppm (Solution 5), soaking time 72 hours): 58.25% and 56.17% | Domiphen bromide remaining in solution (% of total) ([2]; 50 ppm (Solution 5), soaking time 96 hours): 80.84% and 81.31% | Domiphen bromide remaining in solution (% of total) ([2]; 100 ppm (Solution 6), soaking time 24 hours): 68.39% and 63.58% | Domiphen bromide remaining in solution (% of total) ([2]; 100 ppm (Solution 6), soaking time 48 hours): 65.50% and 63.71% | Domiphen bromide remaining in solution (% of total) ([2]; 100 ppm (Solution 6), soaking time 72 hours): 56.54% and 58.19% | Domiphen bromide remaining in solution (% of total) ([2]; 100 ppm (Solution 6), soaking time 96 hours): 53.91% and 59.25% | Domiphen bromide remaining in solution (%) ([3]; 25 ppm (Solution 10), soaking time 24 hours): 63.20% and 75.66% | Domiphen bromide remaining in solution (%) ([3]; 25 ppm (Solution 10), soaking time 48 hours): 71.57% and 73.25% | Domiphen bromide remaining in solution (%) ([3]; 25 ppm (Solution 10), soaking time 72 hours): 64.34% and 76.59% | Domiphen bromide remaining in solution (%) ([3]; 25 ppm (Solution 10), soaking time 96 hours): 59.17% and 64.89% | Domiphen bromide remaining in solution (%) ([3]; 50 ppm (Solution 11), soaking time 24 hours): 76.51% and 80.02% | Domiphen bromide remaining in solution (%) ([3]; 50 ppm (Solution 11), soaking time 48 hours): 78.39% and 72.39% | Domiphen bromide remaining in solution (%) ([3]; 50 ppm (Solution 11), soaking time 72 hours): 67.91% and 77.42% | Domiphen bromide remaining in solution (%) ([3]; 50 ppm (Solution 11), soaking time 96 hours): 59.28% and 69.87% | Domiphen bromide remaining in solution (%) ([3]; 100 ppm (Solution 12), soaking time 24 hours): 75.59% and 77.95% | Domiphen bromide remaining in solution (%) ([3]; 100 ppm (Solution 12), soaking time 48 hours): 79.63% and 70.90% | Domiphen bromide remaining in solution (%) ([3]; 100 ppm (Solution 12), soaking time 72 hours): 71.04% and 81.39% | Domiphen bromide remaining in solution (%) ([3]; 100 ppm (Solution 12), soaking time 96 hours): 62.97% and 74.47% | Inhibition % in 25 ppm Domiphen Bromide ([4]; soaking time 24 hours): 43.92% and 51.40% | Inhibition % in 25 ppm Domiphen Bromide ([4]; soaking time 48 hours): 50.19% and 51.75% | Inhibition % in 25 ppm Domiphen Bromide ([4]; soaking time 72 hours): 52.34% and 47.54% | Inhibition % in 25 ppm Domiphen Bromide ([4]; soaking time 96 hours): 41.31% and 34.37% | Inhibition % in 50 ppm Domiphen Bromide ([4]; soaking time 24 hours): 47.12% and 49.78% | Inhibition % in 50 ppm Domiphen Bromide ([4]; soaking time 48 hours): 49.51% and 49.86% | Inhibition % in 50 ppm Domiphen Bromide ([4]; soaking time 72 hours): 46.67% and 48.35% | Inhibition % in 50 ppm Domiphen Bromide ([4]; soaking time 96 hours): 34.47% and 37.30% | Inhibition % in 100 ppm Domiphen Bromide ([4]; soaking time 24 hours): 48.87% and 47.95% | Inhibition % in 100 ppm Domiphen Bromide ([4]; soaking time 48 hours): 46.77% and 47.52% | Inhibition % in 100 ppm Domiphen Bromide ([4]; soaking time 72 hours): 43.55% and 45.54% | Inhibition % in 100 ppm Domiphen Bromide ([4]; soaking time 96 hours): 34.67% and 37.15% | Inhibition % in 25 ppm Domiphen Bromide ([5]; soaking time 24 hours): 21.85% | Inhibition % in 25 ppm Domiphen Bromide ([5]; soaking time 48 hours): 36.68% and 35.57% | Inhibition % in 25 ppm Domiphen Bromide ([5]; soaking time 72 hours): 33.41% and 33.18% | Inhibition % in 25 ppm Domiphen Bromide ([5]; soaking time 96 hours): 31.54% and 39.03% | Inhibition % in 50 ppm Domiphen Bromide ([5]; soaking time 24 hours): 29.80% and 29.88% | Inhibition % in 50 ppm Domiphen Bromide ([5]; soaking time 48 hours): 36.31% and 32.62% | Inhibition % in 50 ppm Domiphen Bromide ([5]; soaking time 72 hours): 31.35% and 37.25% | Inhibition % in 50 ppm Domiphen Bromide ([5]; soaking time 96 hours): 28.30% and 37.79% | Inhibition % in 100 ppm Domiphen Bromide ([5]; soaking time 24 hours): 14.68% and 17.15% | Inhibition % in 100 ppm Domiphen Bromide ([5]; soaking time 48 hours): 19.08% and 15.10% | Inhibition % in 100 ppm Domiphen Bromide ([5]; soaking time 72 hours): 12.02% and 18.58% | Inhibition % in 100 ppm Domiphen Bromide ([5]; soaking time 96 hours): 14.11% and 20.21% | loading percentage (100% minus Inhibition%) ([5]; borate buffer, as high as): 70-80%

Reference: US20060067981A1, “Contact lens with improved biocidal activity and related methods and materials” (Bausch & Lomb Incorporated, priority 2004, published 2006)
